Results: the supplement of paper PMC7017272
± gives the standard deviation of the averaged measurements.

Experiments:
Details in all cases: treatment time: 3 days
UT-SCC-24A [1] = experiment: drug sensitivity score (DSS); higher = more sensitive
Protocol: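 HNSCC cell lines (500 cells/well, 384-well) were cultured on plastic, on top of (2D) or embedded (3D) in Matrigel or human leiomyoma matrix Myogel (500 ug/mL; Myogel 3D mixed with rat collagen I). Cells were treated for 3 days with 5 ten-fold concentrations of each drug, and viability was read by CellTiter-Glo. Suffixes _1/_2/_3 on drug names are replicates.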

UT-SCC-106A [2] = experiment: maximal % inhibition of viability relative to DMSO; higher = stronger effect
Method in brief: (§1)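 Using 384-well plates, 500 cells/well of HPV-negative HNSCC cell lines were grown on plastic, on 500 µg/mL Matrigel or Myogel coatings, or embedded in Matrigel or Myogel with rat collagen I. They were treated with compounds at five 10-fold concentrations for 3 days, and luminescence from CellTiter-Glo 2.0 was normalised to vehicle (0.1% DMSO) and cell-killing control wells. IC50, maximal inhibition and drug sensitivity score were derived from percent-inhibition dose–response curves in the FIMM pipeline.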

UT-SCC-14 [3] = experiment: as above
Method in brief: as §1

UT-SCC-28 [4] = experiment: as above
Method in brief: as §1

UT-SCC-24A [5] = experiment: maximal % inhibition of viability relative to DMSO; higher = stronger effect
Protocol: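 HNSCC cell lines (500 cells/well, 384-well) were cultured on plastic, on top of (2D) or embedded (3D) in Matrigel or human leiomyoma matrix Myogel (500 ug/mL; Myogel 3D mixed with rat collagen I). Cells were treated for 3 days with 5 ten-fold concentrations of each drug, and viability was read by CellTiter-Glo. Viability was normalised to DMSO (0% inhibition) and 100 uM benzethonium chloride (100% inhibition) controls and fitted with the FIMM DSRT pipeline to give IC50 (nM), maximal % inhibition and the drug sensitivity score (DSS). Suffixes _1/_2/_3 on drug names are replicates.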

UT-SCC-106A [6] = experiment: drug sensitivity score (DSS); higher = more sensitive; extreme values may be limits of the assay
Method in brief: as §1

UT-SCC-14 [7] = experiment: as above
Method in brief: as §1

UT-SCC-24B = experiment: as above
Method in brief: as §1

UT-SCC-28 [8] = experiment: as above
Method in brief: as §1

UT-SCC-40 = experiment: as above
Method in brief: as §1

UT-SCC-42A = experiment: as above
Method in brief: as §1

UT-SCC-42B = experiment: as above
Method in brief: as §1

UT-SCC-44 = experiment: as above
Method in brief: as §1

UT-SCC-73 = experiment: as above
Method in brief: as §1

UT-SCC-81 = experiment: as above
Method in brief: as §1

UT-SCC-8 = experiment: as above
Method in brief: as §1

[9] = culture condition: embedded in Matrigel
[10] = culture condition: embedded in Myogel + collagen I
[11] = culture condition: on top of Matrigel
[12] = culture condition: on top of Myogel
[13] = culture condition: plastic 2D (no matrix)

Cn1cnc2c(F)c(Nc3ccc(Br)cc3Cl)c(C(=O)NOCCO)cc21 [Selumetinib]
drug sensitivity score (UT-SCC-24A [1]; [9]): 20.7 ± 4.2 DSS | drug sensitivity score (UT-SCC-24A [1]; [10]): 16.4 ± 1.8 DSS | drug sensitivity score (UT-SCC-24A [1]; [11]): 19.4 ± 3.9 DSS | drug sensitivity score (UT-SCC-24A [1]; [12]): 8.63 ± 1.6 DSS | drug sensitivity score (UT-SCC-24A [1]; [13]): 17.9 ± 3.7 DSS | maximal % inhibition of viability (UT-SCC-106A [2]; [9]): 53.2 ± 6.3% | maximal % inhibition of viability (UT-SCC-106A [2]; [10]): 18.7 ± 4.1% | maximal % inhibition of viability (UT-SCC-106A [2]; [11]): 58.9 ± 5.3% | maximal % inhibition of viability (UT-SCC-106A [2]; [12]): 15.5 ± 4.6% | maximal % inhibition of viability (UT-SCC-106A [2]; [13]): 58.1 ± 4.1% | maximal % inhibition of viability (UT-SCC-14 [3]; [9]): 31 ± 16% | maximal % inhibition of viability (UT-SCC-14 [3]; [10]): 26.1 ± 7.3% | maximal % inhibition of viability (UT-SCC-14 [3]; [11]): 38.6 ± 9% | maximal % inhibition of viability (UT-SCC-14 [3]; [12]): 32.2 ± 8.8% | maximal % inhibition of viability (UT-SCC-14 [3]; [13]): 35.5 ± 14% | maximal % inhibition of viability (UT-SCC-28 [4]; [9]): 38.9 ± 18% | maximal % inhibition of viability (UT-SCC-28 [4]; [10]): 39.8 ± 4.3% | maximal % inhibition of viability (UT-SCC-28 [4]; [11]): 35.8 ± 9.2% | maximal % inhibition of viability (UT-SCC-28 [4]; [13]): 29.4 ± 9.5% | maximal % inhibition of viability (UT-SCC-24A [5]; [9]): 81.7 ± 2.1% | maximal % inhibition of viability (UT-SCC-24A [5]; [10]): 59.2 ± 2.4% | maximal % inhibition of viability (UT-SCC-24A [5]; [11]): 76.7 ± 1.4% | maximal % inhibition of viability (UT-SCC-24A [5]; [12]): 38.4 ± 3% | maximal % inhibition of viability (UT-SCC-24A [5]; [13]): 70.2 ± 7.2% | drug sensitivity score (UT-SCC-106A [6]; [9]): 14.6 ± 2 DSS | drug sensitivity score (UT-SCC-106A [6]; [10]): 0.867 ± 1.5 DSS | drug sensitivity score (UT-SCC-106A [6]; [11]): 16.1 ± 0.75 DSS | drug sensitivity score (UT-SCC-106A [6]; [12]): 1.03 ± 1.7 DSS | drug sensitivity score (UT-SCC-106A [6]; [13]): 15.7 ± 2.3 DSS | drug sensitivity score (UT-SCC-14 [7]; [9]): 7.13 ± 6.1 DSS | drug sensitivity score (UT-SCC-14 [7]; [10]): 5.17 ± 3.2 DSS | drug sensitivity score (UT-SCC-14 [7]; [11]): 7.17 ± 3 DSS | drug sensitivity score (UT-SCC-14 [7]; [12]): 3.5 ± 3.6 DSS | drug sensitivity score (UT-SCC-14 [7]; [13]): 0.833 ± 1.4 DSS | drug sensitivity score (UT-SCC-24B; [9]): 18.9 ± 1.8 DSS | drug sensitivity score (UT-SCC-24B; [10]): 18.2 ± 1.7 DSS | drug sensitivity score (UT-SCC-24B; [11]): 18.6 ± 0.25 DSS | drug sensitivity score (UT-SCC-24B; [12]): 17.6 ± 0.75 DSS | drug sensitivity score (UT-SCC-24B; [13]): 21 ± 0.4 DSS | drug sensitivity score (UT-SCC-28 [8]; [9]): 8.07 ± 4.3 DSS | drug sensitivity score (UT-SCC-28 [8]; [10]): 4.4 ± 3.9 DSS | drug sensitivity score (UT-SCC-28 [8]; [11]): 6.2 ± 5.5 DSS | drug sensitivity score (UT-SCC-28 [8]; [13]): 3.8 ± 3.9 DSS | drug sensitivity score (UT-SCC-40; [9]): 22.6 ± 0.71 DSS | drug sensitivity score (UT-SCC-40; [10]): 17.6 ± 0.8 DSS | drug sensitivity score (UT-SCC-40; [11]): 20.7 ± 0.92 DSS | drug sensitivity score (UT-SCC-40; [12]): 11.2 ± 2.4 DSS | drug sensitivity score (UT-SCC-40; [13]): 12.6 ± 2.5 DSS | drug sensitivity score (UT-SCC-42A; [9]): 10.9 ± 4.8 DSS | drug sensitivity score (UT-SCC-42A; [10]): 4.23 ± 4.5 DSS | drug sensitivity score (UT-SCC-42A; [11]): 14.4 ± 5 DSS | drug sensitivity score (UT-SCC-42A; [12]): 9.23 ± 2 DSS | drug sensitivity score (UT-SCC-42A; [13]): 10.8 ± 3 DSS | drug sensitivity score (UT-SCC-42B; [9]): 16.5 ± 4.6 DSS | drug sensitivity score (UT-SCC-42B; [11]): 8.67 ± 2.3 DSS | drug sensitivity score (UT-SCC-42B; [12]): 2.13 ± 0.76 DSS | drug sensitivity score (UT-SCC-42B; [13]): 2.33 ± 2 DSS | drug sensitivity score (UT-SCC-44; [9]): 15.8 ± 5.2 DSS | drug sensitivity score (UT-SCC-44; [10]): 4.83 ± 4.2 DSS | drug sensitivity score (UT-SCC-44; [11]): 12.3 ± 0.94 DSS | drug sensitivity score (UT-SCC-44; [12]): 8.17 ± 1.2 DSS | drug sensitivity score (UT-SCC-44; [13]): 7.8 ± 3.5 DSS | drug sensitivity score (UT-SCC-73; [9]): 21 ± 2.8 DSS | drug sensitivity score (UT-SCC-73; [10]): 13.5 ± 3.5 DSS | drug sensitivity score (UT-SCC-73; [11]): 20.2 ± 2.6 DSS | drug sensitivity score (UT-SCC-73; [12]): 15.2 ± 1.1 DSS | drug sensitivity score (UT-SCC-73; [13]): 17.9 ± 1.4 DSS | drug sensitivity score (UT-SCC-81; [9]): 24.4 ± 0.94 DSS | drug sensitivity score (UT-SCC-81; [10]): 7.33 ± 6.3 DSS | drug sensitivity score (UT-SCC-81; [11]): 19.9 ± 0.72 DSS | drug sensitivity score (UT-SCC-81; [12]): 9.93 ± 3.6 DSS | drug sensitivity score (UT-SCC-81; [13]): 7.87 ± 8 DSS | drug sensitivity score (UT-SCC-8; [9]): 10.1 ± 1.3 DSS | drug sensitivity score (UT-SCC-8; [10]): 1.37 ± 2.4 DSS | drug sensitivity score (UT-SCC-8; [11]): 9.63 ± 0.58 DSS | drug sensitivity score (UT-SCC-8; [12]): 10.3 ± 1.5 DSS | drug sensitivity score (UT-SCC-8; [13]): 5.63 ± 2.3 DSS
